Test results: paper PMC11788822, “Uncovering the potent antimicrobial activity of squaramide based anionophores – chloride transport and membrane disruption” (Chemical Science, 2025)
Read-outs that look alike come from different tables or passages of the source.

Tests used:
[1] = 1H NMR titration with TBACl, Cl− binding; details: association constant towards Cl−, compound 2.5 mM, 95% DMSO-d6, 1:1 binding model (Bindfit), errors below 10%
Procedure: To verify if 1–6 formed host–guest complexes with Cl^− in solution, ^1H NMR titrations of each compound (2.5 mM) with TBACl were carried out in DMSO-d6. Increasing equivalents of Cl^− were incrementally added, with spectral information obtained upon addition of each molar equivalent of Cl^−. […] Taking 1 as an example (Fig. 2), upon addition of sequential aliquots of Cl^− there is a clear downfield shift of both squaramide NHs, with minor contributions to the binding cleft derived from the ortho-aryl protons of the aniline of 1. The binding data from each titration was fitted to a 1 : 1 binding model using the Bindfit[36] open access software, and the results are tabulated below (Table 1), alongside the respective Hammett constant for the relevant substitution pattern.[37] […] This aligns with previously reported receptors,[38] where compounds containing CF3 substituents in particular are known to have increased anion binding affinity as well as transport ability.[39]

[2] = system: methicillin-resistant S. aureus (MRSA); test: Growth inhibition assay, MRSA; assay type: cell-based, Staphylococcus aureus; details: 24 h
Procedure: To determine IC50/80 values, growth (optical density) of S. aureus, methicillin-resistant S. aureus (MRSA), P. aeruginosa, and K. pneumoniae when treated with a range of concentrations of each active compound in vitro was measured at 600 nm after a 24 h incubation period at 37 °C. Each compound was studied for activity below […], and those showing little activity above 200 μM, were noted as such, and omitted from further study.
Staphylococcus aureus culture conditions […]
Methicillin-resistant Staphylococcus aureus culture conditions
Methicillin-resistant S. aureus (clinical isolate – St. James’ University Hospital, Dublin) was cultured at 37 °C in Nutrient broth (Oxoid), containing 25 µg/mL Ampicillin in an orbital shaker at 200 rpm. Stocks were kept on nutrient agar containing 25 µg/mL Ampicillin, stored at 4 °C for up to 2 months, or as glycerol stocks (50/50 glycerol:culture), stored at -70 °C indefinitely. […]
Bacterial cultures were brought to early stationary phase overnight, in nutrient broth (containing 25/50 µg/mL Ampicillin for MRSA/K. pneumoniae, respectively) at 37 °C. Cultures were diluted to an OD600 = 0.01. Aliquots of Culture (100 µl) were added to 100 µL serially diluted compound (200 – 0.78 µM) in nutrient broth in a 96-well plate (Sarstedt, Germany).
Plates were incubated at 37 °C for 24 h and growth was measured at 600 nm, where growth was measured and represented relative to control. […]

S. aureus cells = test: Propidium iodide membrane integrity assay; assay type: cell-based, Staphylococcus aureus; details: for propidium iodide fluorescence vs basal (emission around 615 nm): two hours of treatment, various concentrations
Source text: To study whether compounds 1, 2, and 4 do indeed accumulate in the membrane, and yield a depolarising effect, or compromise its integrity we utilised propidium iodide (PI), a red-emissive (λmax(em) = 617 nm) cell-impermeable fluorophore. PI undergoes a fluorescence increase upon internalisation and DNA intercalation, and thus under ordinary circumstances PI fluorescence is quenched, but if membrane integrity is compromised, a fluorescence “turn-on” occurs. After two hours of treatment with 1, 2, and 4, PI fluorescence was compared to basal fluorescence from the fluorophore. […] This clear membrane depolarising effect was less obvious for 4, and follows the trend of the observed transport, and toxicity results. However, it is of note that each compound can effectively promote an influx of PI through membrane depolarisation.
To further investigate the rate of this phenomenon, PI fluorescence was monitored as a function of time, upon treatment of S. aureus with 1 at a concentration of 50 μM (Fig. 4B).
1 mL aliquots of S. aureus cultures brought to early stationary phase overnight were brought to an OD600 = 0.2 and 100 µL of this suspension was added to 96 well plates, whereafter 100 µL of PBS containing; no compound (- control), or compound (2x desired concentration) was added to the suspension. The resultant mixture was incubated at 37 °C for 2 hr whereafter fluorescence intensity from PI (DNA bound form) was quanitified (λ exc/em = 535/615 nm) using a Clariostar plate reader. In the case of time course experiments, Measurement cycles were set for two hours, following addition of the respective compound (T0). Fluorescence was subsequently plotted as F/F0. […]
Statistical analysis of biological data: All biological experiments were carried out in triplicate, making use of cells of differing origins, on three independent occasions. With experiments concerning the use of 96-well plates, all experiments were carried out as three biological replicates of eight technical replicates. All data is presented as the mean + SEM of each replicate, unless specified otherwise. All statistical analysis and significance determination was carried out using the Graphpad Prism 8.0.1 software package.

[3] = system: panel of Gram-positive and -negative pathogens; test: Zone of inhibition assay; assay type: cell-based; details: 5 μL of 1 mM stock on nutrient agar, 37 °C, 24 h; radius ≤ 2 mm deemed not active
Procedure: To do this, a zone of inhibition assay was used as a qualitative measure of activity. To do so, 5 μL of a 1 mM stock of the respective compound was pipetted atop nutrient agar which was previously spread with a panel of Gram-positive and -negative pathogens of interest. Following incubation at 37 °C for 24 h, zones of inhibition were measured and recorded for each compound. Zones with a radius ≤ 2 mm were deemed as not active, and thus eliminated from further study.

[4] = Staphylococcus aureus, MRSA, read-out: MRSA IC50, growth (OD 600 nm) relative to control, 24 h, 37 °C
[5] = Staphylococcus aureus, MRSA, read-out: MRSA IC80, growth (OD 600 nm) relative to control, 24 h, 37 °C

SMILES | K a [1] [M⁻¹] | IC50 [2, 4] [µM] | IC80 [2, 5] [µM] | MRSA IC80 ([2]; growth (OD 600 nm) relative to control, 37 °C) | propidium iodide fluorescence vs basal (emission around 615 nm) (S. aureus cells) | zone of inhibition, qualitative measure of activity [3] | IC80 ([2]; read-out: MRSA IC80, growth (OD 600 nm) relative to control, 37 °C) [µM] | IC50 ([2]; read-out: MRSA IC50, growth (OD 600 nm) relative to control, 37 °C) [µM] | propidium iodide fluorescence as a function of time (S. aureus cells; 50 μM, over two hours)
O=c1c(Nc2ccc(Cl)c(Cl)c2)c(NC23CC4CC(CC(C4)C2)C3)c1=O [Compound 2] | 263 | 25 | > 200 | exceeded the testing range | greatly increased | promising bioactivity | – | – | –
O=c1c(Nc2ccc([N+](=O)[O-])cc2)c(NC23CC4CC(CC(C4)C2)C3)c1=O [Compound 4] | 202 | 50 | > 200 | – | less obvious | promising bioactivity | > 200 | – | –
O=c1c(Nc2cc(C(F)(F)F)cc(C(F)(F)F)c2)c(NC23CC4CC(CC(C4)C2)C3)c1=O [Compound 1] | 235 | 1.56 | 200 | – | greatly increased | promising bioactivity | – | 1.6 | increase in the fluorescence of PI
